Reference: ChEMBL document CHEMBL3400002, “Structure-activity study for (bis)ureidopropyl- and (bis)thioureidopropyldiamine LSD1 inhibitors with 3-5-3 and 3-6-3 carbon backbone architectures” (Bioorg Med Chem, 2015)

What was measured:
[1] = molecular target: Lysine-specific histone demethylase 1A (Homo sapiens) (UniProt O60341); experiment: Activation of human recombinant LSD1 at 10 uM after 30 mins to 4 hrs by fluorescence assay relative to control
[2] = molecular target: T1, Amine oxidase [flavin-containing] A (Homo sapiens, UniProt P21397)
T1 sequence (P21397 whole entry): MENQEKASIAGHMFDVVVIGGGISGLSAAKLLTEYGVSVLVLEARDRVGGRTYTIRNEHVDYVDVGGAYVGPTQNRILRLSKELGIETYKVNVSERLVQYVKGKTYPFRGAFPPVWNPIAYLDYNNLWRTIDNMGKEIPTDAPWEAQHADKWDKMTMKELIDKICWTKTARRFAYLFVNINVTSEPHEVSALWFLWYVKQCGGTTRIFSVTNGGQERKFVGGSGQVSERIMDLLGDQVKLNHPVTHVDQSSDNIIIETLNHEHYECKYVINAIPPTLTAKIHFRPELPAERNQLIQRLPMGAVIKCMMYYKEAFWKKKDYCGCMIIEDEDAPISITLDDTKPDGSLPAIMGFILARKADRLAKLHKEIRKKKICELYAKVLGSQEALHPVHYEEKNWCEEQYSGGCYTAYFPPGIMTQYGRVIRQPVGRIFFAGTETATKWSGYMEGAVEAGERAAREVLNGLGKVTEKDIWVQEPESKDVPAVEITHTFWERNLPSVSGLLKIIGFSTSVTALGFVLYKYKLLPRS

[3] = molecular target: T2, Amine oxidase [flavin-containing] B (Homo sapiens, UniProt P27338)
T2 sequence (P27338 whole entry): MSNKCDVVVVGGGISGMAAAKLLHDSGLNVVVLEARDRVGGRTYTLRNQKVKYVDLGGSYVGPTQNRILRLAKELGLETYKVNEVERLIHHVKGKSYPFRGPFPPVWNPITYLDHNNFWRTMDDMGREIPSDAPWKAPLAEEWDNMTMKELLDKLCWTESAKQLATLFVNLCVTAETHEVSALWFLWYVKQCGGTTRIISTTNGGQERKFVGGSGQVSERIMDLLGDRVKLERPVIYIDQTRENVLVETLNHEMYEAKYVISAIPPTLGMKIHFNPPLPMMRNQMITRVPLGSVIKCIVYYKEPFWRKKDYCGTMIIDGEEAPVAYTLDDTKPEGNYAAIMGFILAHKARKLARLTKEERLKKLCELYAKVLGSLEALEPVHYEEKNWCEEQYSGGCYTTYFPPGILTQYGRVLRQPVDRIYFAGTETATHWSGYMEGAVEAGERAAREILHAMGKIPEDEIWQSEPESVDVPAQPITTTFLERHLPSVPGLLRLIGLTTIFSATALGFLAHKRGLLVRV

Activity [1] [%] | IC50 [2] [µM] | IC50 [3] [µM] | Compound
110 | – | – | O=C(NCCCNCCCCCCNCCCNC(=O)NCc1ccccc1)NCc1ccccc1
119 | – | – | CCCNC(=O)NCCCNCCCCCCNCCCNC(=O)NCCC
119 | – | – | CCNC(=O)NCCCNCCCCCCNCCCNC(=O)NCC
– | 37 | 10 | N=C(NCCCNCCCCCCCNCCCNC(=N)NC(=N)NCCC(c1ccccc1)c1ccccc1)NC(=N)NCCC(c1ccccc1)c1ccccc1
163 | – | – | O=C(NCCCNCCCCCNCCCNC(=O)Nc1ccccc1)Nc1ccccc1
